Data from patent US20120028917A1, “Use Of N-(4-((3-(2-Amino-4-Pyrimidinyl)-2-Pyridinyl)Oxy)Phenyl)-4-(4-Methyl-2-Thienyl)-1-Phthalazinamine In The Treatment Of Antimitotic Agent Resistant Cancer” (Amgen Inc., priority 2009, published 2012).
Marks after values point to notes of the source that are not given here.

Tested on: MiaPaCa2 xenograft
Experiment: Xenograft tumor growth inhibition (Example 7)
Type: in vivo, mice
Conditions: MiaPaCa2, Pancreas; oral 15 mg/kg b.i.d. 2 consecutive days per week or 3 mg/kg b.i.d. every day, 3 weeks
Procedure: The in-vivo effect of AMG 900 on tumor growth was further evaluated in a panel of human xenografts from five different tumor types (breast, colon, lung, pancreatic, and uterine), including three MDR xenograft models. Mice bearing established tumors were orally administered AMG 900 at 15 mg/kg b.i.d. for 2 consecutive days per week for 3 weeks or at 3 mg/kg b.i.d. every day for 3 weeks. The maximum percentage of tumor growth inhibition (TGI) is reported, in Table 7 below, for each xenograft model. The percentage of TGI was calculated as the difference between the change in vehicle-treated control and AMG 900-treated tumor volumes during the study period.

Cc1csc(-c2nnc(Nc3ccc(Oc4ncccc4-c4ccnc(N)n4)cc3)c3ccccc23)c1 [AMG 900, N-(4-((3-(2-amino-4-pyrimidinyl)-2-pyridinyl)oxy)phenyl)-4-(4-methyl-2-thienyl)-1-phthalazinamine]
Maximum TGI (%): 60** %
